# Data published in the supplement of paper PMC10307832.
# Legend:
# Assay in all cases: relative viability (nuclei count vs DMSO), 5 days (fraction); higher = more cells survive
# [1] = compound: CO[C@@H]1[C@H](N(C)C(=O)c2ccccc2)C[C@H]2O[C@]1(C)n1c3ccccc3c3c4c(c5c6ccccc6n2c5c31)C(=O)NC4 [Midostaurin] + Cc1cc(Nc2cc(N3CCN(C)CC3)nc(Sc3ccc(NC(=O)C4CC4)cc3)n2)n[nH]1 [Tozasertib] (partner 0.1 µM)
# Procedure, shortened: (§1)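 Medians of duplicate plates are given as relative viability. That measure is the nuclei count in treated wells divided by the count in vehicle wells. Counts were taken on 4× images of lung cancer cell lines in 1536-well plates, 5 days after pin-tool dosing the day after seeding with one drug alone or a fixed anchor-drug dose plus five library-drug doses (not always all listed) in √10 steps.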
# [2] = compound: CO[C@@H]1[C@H](N(C)C(=O)c2ccccc2)C[C@H]2O[C@]1(C)n1c3ccccc3c3c4c(c5c6ccccc6n2c5c31)C(=O)NC4 [Midostaurin] + O=C(c1cc(Cc2n[nH]c(=O)c3ccccc23)ccc1F)N1CCN(C(=O)C2CC2)CC1 [Olaparib] (partner 8 µM)
# Procedure, shortened: as §1
# [3] = compound: CO[C@@H]1[C@H](N(C)C(=O)c2ccccc2)C[C@H]2O[C@]1(C)n1c3ccccc3c3c4c(c5c6ccccc6n2c5c31)C(=O)NC4 [Midostaurin] + CC(C)C[C@H](NC(=O)[C@H](Cc1ccccc1)NC(=O)c1cnccn1)B(O)O [Bortezomib] (partner 0.002 µM)
# Procedure, shortened: as §1
# [4] = compound: CO[C@@H]1[C@H](N(C)C(=O)c2ccccc2)C[C@H]2O[C@]1(C)n1c3ccccc3c3c4c(c5c6ccccc6n2c5c31)C(=O)NC4 [Midostaurin] + CS(=O)(=O)CCNCc1ccc(-c2ccc3ncnc(Nc4ccc(OCc5cccc(F)c5)c(Cl)c4)c3c2)o1 [Lapatinib] (partner 2 µM)
# Procedure, shortened: as §1
# [5] = compound: CO[C@@H]1[C@H](N(C)C(=O)c2ccccc2)C[C@H]2O[C@]1(C)n1c3ccccc3c3c4c(c5c6ccccc6n2c5c31)C(=O)NC4 [Midostaurin] + C[C@]1(O)C[C@@H](c2nc(-c3ccc4ccc(-c5ccccc5)nc4c3)c3c(N)nccn32)C1 [Linsitinib] (partner 1 µM)
# Procedure, shortened: as §1
Cell Line,relative viability ([1]; first compound 0.01 µM),relative viability ([1]; first compound 0.03162 µM),relative viability ([1]; first compound 0.1 µM),relative viability ([1]; first compound 0.3162 µM),relative viability ([2]; first compound 0.01 µM),relative viability ([2]; first compound 0.03162 µM),relative viability ([2]; first compound 0.1 µM),relative viability ([2]; first compound 0.3162 µM),relative viability ([3]; first compound 0.01 µM),relative viability ([3]; first compound 0.03162 µM),relative viability ([3]; first compound 0.1 µM),relative viability ([3]; first compound 0.3162 µM),relative viability ([4]; first compound 0.01 µM),relative viability ([4]; first compound 0.03162 µM),relative viability ([4]; first compound 0.1 µM),relative viability ([4]; first compound 0.3162 µM),relative viability ([5]; first compound 0.01 µM),relative viability ([5]; first compound 0.03162 µM),relative viability ([5]; first compound 0.1 µM),relative viability ([5]; first compound 0.3162 µM)
NCI-H2342,0.57,0.487,0.551,0.538,0.419,0.394,0.422,0.489,–,–,–,–,–,–,–,–,–,–,–,–
HCC-15,0.449,0.419,0.249,0.324,0.747,0.734,0.678,0.641,1.04,0.946,0.999,1.08,0.85,0.776,0.692,0.921,0.886,0.898,0.904,0.818
A-427,0.232,0.215,0.193,0.172,0.711,0.654,0.713,0.725,0.961,0.939,0.992,0.899,0.95,0.993,0.835,1.1,1.14,1.08,1.09,1.09
NCI-H2228,0.254,0.284,0.265,0.216,0.618,0.588,0.744,0.556,1.21,1.19,1,0.942,0.966,1.07,1.23,0.972,0.731,0.879,0.828,0.679
NCI-H1734,0.239,0.276,0.294,0.267,0.603,0.562,0.62,0.69,0.868,0.886,0.915,0.786,1.01,1.1,1.07,1.12,0.832,0.803,0.728,0.928
PC-14,0.616,0.574,0.598,0.491,0.328,0.281,0.206,0.199,0.839,0.713,0.811,0.815,0.345,0.289,0.302,0.266,0.995,0.943,0.996,0.975
NCI-H1915,0.46,0.435,0.404,0.412,0.257,0.249,0.243,0.224,0.936,1,0.968,0.993,0.865,0.972,0.956,1.04,1.05,1.06,1.09,1.11
NCI-H1666,0.629,0.572,0.596,0.488,0.709,0.708,0.694,0.673,0.852,0.894,0.882,0.888,0.74,0.617,0.81,0.634,0.897,0.916,0.77,0.822
HCC-366,0.146,0.126,0.0694,0.0567,0.336,0.358,0.302,0.117,1.02,1.04,1.02,1.1,1.01,1.04,1.04,1.13,0.624,0.754,0.457,0.381
SK-MES-1,0.803,0.819,0.741,0.578,0.634,0.595,0.66,0.473,–,–,–,–,0.455,0.439,0.395,0.491,1.05,0.954,1.06,1.07
SW 1573,0.177,0.187,0.173,0.157,0.503,0.547,0.403,0.249,0.966,0.988,1.15,1.05,1.2,1.17,1.06,1.07,0.747,0.848,0.979,1.02
NCI-H661,0.362,0.323,0.364,0.376,0.721,0.7,0.714,0.717,0.742,0.933,0.667,0.72,0.389,0.449,0.411,0.384,0.56,0.638,0.532,0.439
PC-3 [JPC-3],0.886,0.809,0.865,0.867,1.08,0.946,1.05,1.07,0.891,0.734,0.683,0.85,0.432,0.439,0.488,0.43,0.913,0.862,0.925,0.934
NCI-H1623,0.445,0.481,0.433,0.446,–,–,–,–,–,–,–,–,–,–,–,–,–,–,–,–
Calu-6,–,–,–,–,0.421,0.638,0.509,0.495,0.934,0.973,0.96,0.791,0.94,1.02,1.02,0.986,0.946,0.889,1,0.922
LC-2-ad,0.509,0.545,0.52,0.422,0.738,0.688,0.673,0.691,1.03,0.979,0.995,1,0.989,0.956,0.982,0.855,0.851,0.768,0.849,0.631
CAL-12T,0.345,0.27,0.266,0.215,0.76,0.585,0.681,0.633,1,0.922,0.88,0.796,0.726,0.447,0.603,0.498,0.721,0.672,0.808,0.676
RERF-LC-KJ,0.47,0.464,0.433,0.321,0.819,0.839,0.814,0.716,1.16,1.18,1.16,1.23,0.881,0.91,0.907,0.922,0.945,0.868,0.89,0.926
NCI-H1650,0.391,0.359,0.357,0.342,0.945,0.793,0.727,0.703,0.214,0.227,0.206,0.213,0.757,0.791,0.878,0.581,–,–,–,–

Cell Line,relative viability ([1]; first compound 0.01 µM),relative viability ([1]; first compound 0.03162 µM),relative viability ([1]; first compound 0.1 µM),relative viability ([1]; first compound 0.3162 µM),relative viability ([2]; first compound 0.01 µM),relative viability ([2]; first compound 0.03162 µM),relative viability ([2]; first compound 0.1 µM),relative viability ([2]; first compound 0.3162 µM),relative viability ([3]; first compound 0.01 µM),relative viability ([3]; first compound 0.03162 µM),relative viability ([3]; first compound 0.1 µM),relative viability ([3]; first compound 0.3162 µM),relative viability ([4]; first compound 0.01 µM),relative viability ([4]; first compound 0.03162 µM),relative viability ([4]; first compound 0.1 µM),relative viability ([4]; first compound 0.3162 µM),relative viability ([5]; first compound 0.01 µM),relative viability ([5]; first compound 0.03162 µM),relative viability ([5]; first compound 0.1 µM),relative viability ([5]; first compound 0.3162 µM)
NCI-H2170,0.681,0.769,0.729,0.621,0.569,0.569,0.551,0.54,–,–,–,–,0.29,0.259,0.255,0.285,–,–,–,–
NCI-H1299,–,–,–,–,0.919,0.942,0.985,0.924,1.03,0.987,0.95,1.01,0.959,0.93,0.871,0.883,0.943,0.91,0.95,0.616
EBC-1,–,–,–,–,0.719,0.589,0.673,0.679,0.756,0.485,0.502,0.427,0.208,0.212,0.217,0.222,0.901,0.735,0.873,0.24
NCI-H1648,0.511,0.609,0.417,0.299,1.08,–,–,0.767,–,–,–,–,–,–,–,–,–,–,–,–
NCI-H1792,–,–,–,–,0.383,0.308,0.249,0.146,0.943,0.949,0.911,0.949,0.932,0.875,0.862,0.91,0.577,0.556,0.499,0.526
ChaGo-K-1,0.312,0.214,0.229,0.219,0.439,0.404,0.338,0.433,0.985,1.28,0.759,1.12,–,–,–,–,–,–,–,–
LK-2,0.175,0.147,0.18,0.173,0.686,0.612,0.878,0.791,–,–,–,–,0.916,0.901,0.921,0.822,0.462,0.62,0.559,0.816
NCI-H1944,0.268,0.269,0.261,0.232,0.388,0.433,0.402,0.429,–,–,–,–,0.783,0.794,0.898,0.977,1.17,1.25,1.31,1.28
NCI-H1793,0.38,0.39,0.313,0.184,0.923,0.804,0.644,0.431,–,–,–,–,0.971,0.715,0.767,0.75,1.08,0.77,0.651,0.559
A549,–,–,–,–,0.256,0.39,0.359,0.216,–,–,–,–,0.954,0.854,1,0.212,0.609,0.59,0.511,0.423
NCI-H358,0.103,0.101,0.0978,0.112,0.511,0.48,0.531,0.575,–,–,–,–,0.582,0.391,0.584,0.499,0.818,0.607,0.813,0.599
NCI-H1563,–,–,–,–,–,–,–,–,0.888,0.937,0.761,0.888,0.929,0.97,0.77,0.924,1.16,1.2,1.03,1.11
NCI-H1395,0.726,0.785,0.708,0.769,0.44,0.468,0.454,0.465,–,–,–,–,1.04,1.12,0.912,1.3,1.06,1.22,1.01,1.02
NCI-H522,0.557,0.607,0.629,0.621,0.546,0.748,0.578,0.682,–,–,–,–,–,–,–,–,–,–,–,–
IA-LM,–,–,–,–,0.746,0.653,0.748,0.881,0.85,–,0.946,0.783,0.886,0.579,0.984,0.551,0.557,0.378,0.711,0.673
NCI-H1703,–,–,–,–,0.507,0.421,0.298,0.216,0.427,0.256,0.373,0.153,1.04,1.08,1.1,0.317,0.838,0.69,0.672,0.296
NCI-H441,0.592,0.631,0.564,0.401,0.475,0.677,0.458,0.427,0.477,0.647,0.392,0.442,–,–,–,–,0.569,0.56,0.432,0.435
LCLC-103H,0.522,0.45,0.456,0.379,0.746,0.813,0.717,0.805,1.07,0.924,1.02,1.1,–,–,–,–,1.12,1.16,1.16,1.14
SW 900,0.578,0.525,0.59,0.466,0.826,1.08,0.852,0.575,–,–,–,–,–,–,–,–,–,–,–,–
